Assay results taken from PubChem BioAssay (NCI).
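Results reflect a 48-hour exposure of cells in 96-well plates to compound at five concentrations. At the TGI there is no net growth.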

What was measured:
Assay in all cases: NCI tumour cell line growth inhibition, 48 h
CAKI-1 renal = system: CAKI-1 renal
SNB-75 CNS = system: SNB-75 CNS
OVCAR-5 ovarian = system: OVCAR-5 ovarian
TK-10 renal = system: TK-10 renal
UACC-257 melanoma = system: UACC-257 melanoma
SNB-19 CNS = system: SNB-19 CNS
NCI-H226 lung = system: NCI-H226 lung
SK-OV-3 ovarian = system: SK-OV-3 ovarian
IGROV1 ovarian = system: IGROV1 ovarian
SN12C renal = system: SN12C renal
HOP-92 NSCLC = system: HOP-92 NSCLC
HCC-2998 colon = system: HCC-2998 colon
786-0 renal = system: 786-0 renal
U251 CNS = system: U251 CNS
SF-539 CNS = system: SF-539 CNS
A498 renal = system: A498 renal
NCI/ADR-RES ovarian = system: NCI/ADR-RES ovarian
HOP-62 NSCLC = system: HOP-62 NSCLC
SF-268 CNS = system: SF-268 CNS
DU-145 prostate = system: DU-145 prostate
COLO 205 colon = system: COLO 205 colon
UACC-62 melanoma = system: UACC-62 melanoma
SK-MEL-2 melanoma = system: SK-MEL-2 melanoma
MDA-MB-435 = system: MDA-MB-435
A549 NSCLC = system: A549 NSCLC
OVCAR-4 ovarian = system: OVCAR-4 ovarian
SF-295 CNS = system: SF-295 CNS
OVCAR-3 ovarian = system: OVCAR-3 ovarian
HCT-116 colon = system: HCT-116 colon
SK-MEL-5 melanoma = system: SK-MEL-5 melanoma
HT29 colon = system: HT29 colon
EKVX NSCLC = system: EKVX NSCLC
ACHN renal = system: ACHN renal
NCI-H23 lung = system: NCI-H23 lung
MCF7 breast = system: MCF7 breast
NCI-H522 lung = system: NCI-H522 lung
SK-MEL-28 melanoma = system: SK-MEL-28 melanoma
HCT-15 colon = system: HCT-15 colon
MDA-MB-231 breast = system: MDA-MB-231 breast
MALME-3M melanoma = system: MALME-3M melanoma
NCI-H460 lung = system: NCI-H460 lung
SR leukemia = system: SR leukemia
KM12 colon = system: KM12 colon
MOLT-4 leukemia = system: MOLT-4 leukemia
MDA-N = system: MDA-N
K-562 leukemia = system: K-562 leukemia
UO-31 renal = system: UO-31 renal
M14 melanoma = system: M14 melanoma
T-47D breast = system: T-47D breast
SW-620 colon = system: SW-620 colon
RXF 393 renal = system: RXF 393 renal
CCRF-CEM leukemia = system: CCRF-CEM leukemia
PC-3 prostate = system: PC-3 prostate
OVCAR-8 ovarian = system: OVCAR-8 ovarian
HL-60(TB) leukemia = system: HL-60(TB) leukemia
LOX IMVI melanoma = system: LOX IMVI melanoma
HS 578T breast = system: HS 578T breast

SMILES: COc1cc(NCc2ccc3nc(-c4ccccc4)c(N)nc3c2)cc(OC)c1OC
- TGI (CAKI-1 renal): 85.8 µM
- TGI (SNB-75 CNS): 73.5 µM
- TGI (OVCAR-5 ovarian): > 100 µM
- TGI (TK-10 renal): > 100 µM
- TGI (UACC-257 melanoma): 51.4 µM
- TGI (SNB-19 CNS): > 100 µM
- TGI (NCI-H226 lung): > 100 µM
- TGI (SK-OV-3 ovarian): > 100 µM
- TGI (IGROV1 ovarian): > 100 µM
- TGI (SN12C renal): > 100 µM
- TGI (HOP-92 NSCLC): 78.1 µM
- TGI (HCC-2998 colon): > 100 µM
- TGI (786-0 renal): > 100 µM
- TGI (U251 CNS): > 100 µM
- TGI (SF-539 CNS): 91.4 µM
- TGI (A498 renal): 75.3 µM
- TGI (NCI/ADR-RES ovarian): 57.8 µM
- TGI (HOP-62 NSCLC): > 100 µM
- TGI (SF-268 CNS): 98.6 µM
- TGI (DU-145 prostate): 99.6 µM
- TGI (COLO 205 colon): 38.6 µM
- TGI (UACC-62 melanoma): 72.6 µM
- TGI (SK-MEL-2 melanoma): > 100 µM
- TGI (MDA-MB-435): 50.7 µM
- TGI (A549 NSCLC): 83.8 µM
- TGI (OVCAR-4 ovarian): > 100 µM
- TGI (SF-295 CNS): 92.7 µM
- TGI (OVCAR-3 ovarian): 82.7 µM
- TGI (HCT-116 colon): 33.7 µM
- TGI (SK-MEL-5 melanoma): 28.9 µM
- TGI (HT29 colon): > 100 µM
- TGI (EKVX NSCLC): > 100 µM
- TGI (ACHN renal): > 100 µM
- TGI (NCI-H23 lung): 62.3 µM
- TGI (MCF7 breast): 55.9 µM
- TGI (NCI-H522 lung): 62.3 µM
- TGI (SK-MEL-28 melanoma): 69 µM
- TGI (HCT-15 colon): > 100 µM
- TGI (MDA-MB-231 breast): > 100 µM
- TGI (MALME-3M melanoma): 65.9 µM
- TGI (NCI-H460 lung): > 100 µM
- TGI (SR leukemia): > 100 µM
- TGI (KM12 colon): 54.5 µM
- TGI (MOLT-4 leukemia): 58.6 µM
- TGI (MDA-N): > 100 µM
- TGI (K-562 leukemia): > 100 µM
- TGI (UO-31 renal): > 100 µM
- TGI (M14 melanoma): 37.8 µM
- TGI (T-47D breast): 91 µM
- TGI (SW-620 colon): > 100 µM
- TGI (RXF 393 renal): 58.9 µM
- TGI (CCRF-CEM leukemia): 77 µM
- TGI (PC-3 prostate): 93.6 µM
- TGI (OVCAR-8 ovarian): 57.3 µM
- TGI (HL-60(TB) leukemia): 49.7 µM
- TGI (LOX IMVI melanoma): > 100 µM

SMILES: CC(O)(/C=C/c1ccccc1)P(=O)(O)c1ccccc1 (centres undefined)
- TGI (CAKI-1 renal): > 100 µM
- TGI (SNB-75 CNS): > 100 µM
- TGI (OVCAR-5 ovarian): > 100 µM
- TGI (TK-10 renal): > 100 µM
- TGI (UACC-257 melanoma): > 100 µM
- TGI (SNB-19 CNS): > 100 µM
- TGI (NCI-H226 lung): > 100 µM
- TGI (SK-OV-3 ovarian): > 100 µM
- TGI (IGROV1 ovarian): > 100 µM
- TGI (SN12C renal): > 100 µM
- TGI (HOP-92 NSCLC): > 100 µM
- TGI (HCC-2998 colon): > 100 µM
- TGI (786-0 renal): > 100 µM
- TGI (U251 CNS): > 100 µM
- TGI (SF-539 CNS): > 100 µM
- TGI (A498 renal): > 100 µM
- TGI (NCI/ADR-RES ovarian): > 100 µM
- TGI (HOP-62 NSCLC): > 100 µM
- TGI (SF-268 CNS): > 100 µM
- TGI (DU-145 prostate): > 100 µM
- TGI (COLO 205 colon): > 100 µM
- TGI (UACC-62 melanoma): > 100 µM
- TGI (SK-MEL-2 melanoma): > 100 µM
- TGI (MDA-MB-435): > 100 µM
- TGI (A549 NSCLC): > 100 µM
- TGI (OVCAR-4 ovarian): > 100 µM
- TGI (SF-295 CNS): > 100 µM
- TGI (OVCAR-3 ovarian): > 100 µM
- TGI (HCT-116 colon): > 100 µM
- TGI (SK-MEL-5 melanoma): > 100 µM
- TGI (HT29 colon): > 100 µM
- TGI (EKVX NSCLC): > 100 µM
- TGI (ACHN renal): > 100 µM
- TGI (NCI-H23 lung): > 100 µM
- TGI (MCF7 breast): > 100 µM
- TGI (NCI-H522 lung): > 100 µM
- TGI (SK-MEL-28 melanoma): > 100 µM
- TGI (HCT-15 colon): > 100 µM
- TGI (MALME-3M melanoma): > 100 µM
- TGI (NCI-H460 lung): > 100 µM
- TGI (SR leukemia): > 100 µM
- TGI (KM12 colon): > 100 µM
- TGI (HS 578T breast): > 100 µM
- TGI (MDA-N): > 100 µM
- TGI (K-562 leukemia): > 100 µM
- TGI (M14 melanoma): > 100 µM
- TGI (T-47D breast): > 100 µM
- TGI (SW-620 colon): > 100 µM
- TGI (RXF 393 renal): > 100 µM
- TGI (PC-3 prostate): > 100 µM
- TGI (OVCAR-8 ovarian): > 100 µM
- TGI (HL-60(TB) leukemia): > 100 µM
- TGI (LOX IMVI melanoma): > 100 µM
